Where two headings read alike, the source gives them in different places.
Legend:
in vitro = settings: chlorocebus sabaeus
SARS-CoV-2 = assay: microbe, parasite or virus in culture; type: cell-based
[1] = Severe acute respiratory syndrome coronavirus 2, […], mean ± SD of duplicate experiments, read-out: Anti-SARS-CoV-2 activity EC50
[2] = […], mean ± SD of duplicate experiments
[3] = Severe acute respiratory syndrome coronavirus 2, read-out: Anti-SARS-CoV-2 activity EC50, primary screening

| SMILES | CC50 (in vitro) [µM] | EC50 (SARS-CoV-2; [1]) [µM] | other results |
| --- | --- | --- | --- |
| CCN(CC)CCOc1cc(-c2ccccc2)nc2ccccc12 [Compound 12a] | 64.7 ± 29.8 | > 100 | Anti-SARS-CoV-2 activity EC50 (SARS-CoV-2; [2]): loss of activity |
| CCN(CC)CCOc1cc(-c2ccc(Cl)s2)nc2ccccc12 [Compound 13a] | – | > 100 | Anti-SARS-CoV-2 activity EC50 (SARS-CoV-2; [2]): loss of activity |
| CCCOc1ccc(-c2cc(OCCN(CC)CC)c3c(OC)cccc3n2)cc1 [Compound 2a] | – | > 100 | – |
| CCCOc1ccc(-c2cc(OCCn3cccc3)c3ccccc3n2)cc1 [Compound 1h] | – | > 100 | – |
| CCCOc1ccc(-c2cc(OCCN3CCCC3)c3cccc(OC)c3n2)cc1 [Compound 5j] | 30.8 ± 0.1 | > 100 | – |
| CCCOc1ccc(-c2cc(OCCN3CCCC3)c3cc(OC)c(OC)cc3n2)cc1 [Compound 8j] | 12.9 ± 4.8 | 9.6 ± 2.2 | – |
| CCCOc1ccc(-c2cc(OCCCN(C)C)c3ccccc3n2)cc1 [Compound 1b] | – | > 100 | – |
| CCCOc1ccc(-c2cc(OCCN3CCc4ccccc4C3)c3c(OC)cc(OC)cc3n2)cc1 [Compound 6n, 4-[2-(3,4-Dihydroisoquinolin-2(1H)-yl)ethoxy]-5,7-dimethoxy-2-(4-propoxyphenyl)quinoline] | > 100 | > 100 | Anti-SARS-CoV-2 activity EC50 (SARS-CoV-2; [2]): devoid of any activity |
| CCCOc1ccc(-c2cc(OCCN(CC)CC)c3c(OC)cc(OC)cc3n2)cc1 [Compound 6a] | 6.71 ± 3.5 | > 100 | – |
| CCCOc1ccc(-c2cc(O)c3ccccc3n2)cc1 [Compound 1] | – | > 100 | Anti-SARS-CoV-2 activity EC50, primary screening (SARS-CoV-2): completely inactive |
| c1ccc(-c2cc(OCCN3CCCCC3)c3ccccc3n2)nc1 [Compound 14k] | – | > 100 | Anti-SARS-CoV-2 activity EC50 (SARS-CoV-2; [2]): loss of activity |
| CCCOc1ccc(-c2cc(OCCN3CCCC3)c3c(OC)cc(OC)cc3n2)cc1 [Compound 6j] | 16.1 ± 17 | > 100 | – |
| CCCOc1ccc(-c2cc(OCCN3CCc4cc(OC)c(OC)cc4C3)c3ccccc3n2)cc1 [Compound 1g] | – | > 100 | – |
| CCCOc1ccc(-c2cc(OCCN3Cc4ccccc4C3)c3c(OC)cc(OC)cc3n2)cc1 [Compound 6o, 4-[2-(1,3-Dihydro-2H-isoindol-2-yl)ethoxy]-5,7-dimethoxy-2-(4-propoxyphenyl)quinoline] | > 100 | > 100 | Anti-SARS-CoV-2 activity EC50 (SARS-CoV-2; [2]): devoid of any activity |
| CCCOc1ccc(-c2cc(OCCN(CC)CC)c3c(OC)c(OC)c(OC)cc3n2)cc1 [Compound 10a] | 23.8 ± 8.3 | 8.3 ± 1.8 | – |
| CCCOc1ccc(-c2cc(OCCN(CC)CC)c3ccccc3n2)cc1 [Compound 1a] | 21.2 ± 4.2 | 6.5 ± 0.05 | EC50 (SARS-CoV-2; [3]): 6 µM |
| CCCOc1ccc(-c2cc(OCCN(Cc3ccccc3)Cc3ccccc3)c3ccccc3n2)cc1 [Compound 1c] | – | > 100 | – |
| CCCOc1ccc(-c2cc(OCCCN(C)C)c3cc(OC)ccc3n2)cc1 [Compound 3b] | – | > 100 | – |
| CCCOc1ccc(-c2cc(OCCN3CCc4cc(OC)ccc4C3)c3c(OC)cc(OC)cc3n2)cc1 [Compound 6m, 5,7-Dimethoxy-4-[2-(6-methoxy-3,4-dihydroisoquinolin-2(1H)-yl)ethoxy]-2-(4-propoxyphenyl)quinoline] | > 100 | > 100 | Anti-SARS-CoV-2 activity EC50 (SARS-CoV-2; [2]): devoid of any activity |
| COc1cc(O)c2c(=O)cc(-c3ccc(OCCCN4CCN(C)CC4)c(N)c3)n(C)c2c1 [WRNA10] | 40 | – | EC50 (SARS-CoV-2; [3]): 10 µM |
| CCCOc1ccc(-c2cc(OCc3ccccn3)c3ccccc3n2)cc1 [Compound 1e] | – | > 100 | – |
| NC(=O)c1ccc(Oc2ccc(C(N)=O)cc2)cc1 [OUL-355] | – | – | EC50 (SARS-CoV-2; read-out: Anti-SARS-CoV-2 activity EC50, primary screening): > 100 µM |
| CCCOc1ccc(-c2cc(OCCN3CCc4cc(OC)c(OC)cc4C3)c3ccc(OC)cc3n2)cc1 [Compound 4g] | – | > 40 | – |
| CCCOc1ccc(-c2cc(OC3CC4CCN3CC4)c3ccccc3n2)cc1 (stereo not drawn) [Compound 1d] | – | > 100 | – |
| CCCOc1ccc(-c2cc(C(=O)NCCN(CC)CC)c3ccccc3n2)cc1 [Compound 11l] | – | > 100 | Anti-SARS-CoV-2 activity EC50 (SARS-CoV-2; [2]): loss of activity |
